Test results: US20210024542A1 (Torcept Therapeutics, Inc., priority 2018, published 2021)
Read-outs that look alike come from different tables or passages of the source.

Assays:
Format in all cases: cell-based, human
[1] = test system: G-402; assay: OncoPanel cell proliferation assay, G-402; conditions: for Relative cell count (%) Mean: G-402
Procedure: (§1) Cells were grown in RPMI 1640, 10% FBS, 2 mM L-alanyl-L-glutamine, 1 mM Na pyruvate, or a special medium. Cells were seeded into 384-well plates and incubated in a humidified atmosphere of 5% CO2 at 37° C. Compounds were added the day following cell seeding. At the same time, a time zero untreated cell plate was generated. After a 3-day incubation period, cells were fixed and stained to allow fluorescence imaging of nuclei. Compounds (1 mM stock solutions) were serially diluted in half-log steps from the highest test concentration ([…]), and assayed over 10 concentrations with a maximum assay concentration of 0.1% DMSO. Automated fluorescence microscopy was carried out using a Molecular Devices ImageXpress Micro XL high-content imager, and images were collected with a 4× objective. 16-bit TIFF images were acquired and analyzed with MetaXpress 5.1.0.41 software.
(§2) Cell proliferation was measured by the fluorescence intensity of an incorporated nuclear dye. The output is referred to as the relative cell count, where the measured nuclear intensity is transformed to percent of control (POC) using the following formula: […]
(§3) Cellular response parameters were calculated using nonlinear regression to a sigmoidal single-site dose response model:
(§4) Where y is a response measured at concentration x, A and B are the lower and upper limits of the response, C is the concentration at the response midpoint (EC50), and D is the Hill Slope (Ref. 1).
(§5) EC50 is the test compound concentration at the curve inflection point or half the effective response (parameter C of the fitted curve solution). GI50 is the concentration needed to reduce the observed growth by half (midway between the curve maximum and the time zero value). “Cell Count Activity Area” is an estimate of the integrated area above the curve (Barretina, et al. The Cancer Cell Line Encyclopedia enables predictive modelling of anticancer drug sensitivity. Nature 483: 603-607). […] In rare instances, values <0 or >10 may be observed. […] Curve-fitting, calculations, and report generation was performed using a custom data reduction engine and MathIQ based software (AIM).

[2] = test system: NCIH446; assay: OncoPanel cell proliferation assay, NCIH446; conditions: for Relative cell count (%) Mean: NCIH446
Procedure: as §1, §2, §3, §4, §5

[3] = test system: A431; assay: OncoPanel cell proliferation assay, A431; conditions: for Relative cell count (%) Mean: A431
Procedure: as §1, §2, §3, §4, §5

[4] = test system: CRO-AP2; assay: OncoPanel cell proliferation assay, CRO-AP2; conditions: for Relative cell count (%) Mean: CRO-AP2
Procedure: as §1, §2, §3, §4, §5

[5] = test system: CaOV3; assay: OncoPanel cell proliferation assay, CaOV3; conditions: for Relative cell count (%) Mean: CaOV3
Procedure: as §1, §2, §3, §4, §5

[6] = test system: SK-MEL-28; assay: OncoPanel cell proliferation assay, SK-MEL-28; conditions: for Relative cell count (%) Mean: SK-MEL-28
Procedure: as §1, §2, §3, §4, §5

[7] = test system: MES-SA; assay: OncoPanel cell proliferation assay, MES-SA; conditions: 1.00E+00 microM
Procedure: as §1, §2, §3, §4, §5

CO[C@H]1C[C@@H]2CC[C@@H](C)[C@@](O)(O2)C(=O)C(=O)N2CCCC[C@H]2C(=O)O[C@H]([C@H](C)C[C@@H]2C[C@@H]3C[C@H]2C[C@H]3O)CC(=O)[C@H](C)/C=C(\C)[C@@H](O)[C@@H](OC)C(=O)[C@H](C)C[C@H](C)/C=C/C=C/C=C/1C [Formula I, 37R-hydroxynorbornylrapamycin]
Cell Count Activity Area ([1]; G-402, scale 0-10): 4.95 | Relative cell count (%) Mean ([1]; 1.00E+00 microM): 31.5% | Relative cell count (%) Mean ([1]; 1.00E−01 microM): 37.2% | Relative cell count (%) Mean ([1]; 1.00E−02 microM): 41.4% | Relative cell count (%) Mean ([1]; 1.00E−03 microM): 49.2% | Relative cell count (%) Mean ([1]; 1.01E−04 microM): 70.9% | Relative cell count (%) Mean ([1]; 3.16E−01 microM): 34.9% | Relative cell count (%) Mean ([1]; 3.17E−02 microM): 46.6% | Relative cell count (%) Mean ([1]; 3.17E−03 microM): 48.8% | Relative cell count (%) Mean ([1]; 3.18E−04 microM): 54.9% | Relative cell count (%) Mean ([1]; 3.18E−05 microM): 89.9% | EC50 ([1]; Homo sapiens, 72 h, G-402, 3-day incubation, read-out: Cell Count EC50): 0.133 nM | GI50 ([1]; Homo sapiens, 72 h, G-402, 3-day incubation, read-out: Cell Count GI50): 0.332 nM | IC50 ([1]; Homo sapiens, 72 h, G-402, 3-day incubation, read-out: Cell Count IC50): 0.956 nM | EC50 ([2]; Homo sapiens, NCI-H446, 72 h, NCIH446, 3-day incubation, read-out: Cell Count EC50): 1.37 nM | GI50 ([2]; Homo sapiens, NCI-H446, 72 h, NCIH446, 3-day incubation, read-out: Cell Count GI50): 75.5 nM | IC50 ([2]; Homo sapiens, NCI-H446, 72 h, NCIH446, 3-day incubation, read-out: Cell Count IC50): > 1000 nM | Cell Count Activity Area ([2]; NCIH446, scale 0-10): 1.96 | Relative cell count (%) Mean ([2]; 1.00E+00 microM): 69.7% | Relative cell count (%) Mean ([2]; 1.00E−01 microM): 77.0% | Relative cell count (%) Mean ([2]; 1.00E−02 microM): 75.9% | Relative cell count (%) Mean ([2]; 1.00E−03 microM): 88.1% | Relative cell count (%) Mean ([2]; 1.01E−04 microM): 102.8% | Relative cell count (%) Mean ([2]; 3.16E−01 microM): 71.2% | Relative cell count (%) Mean ([2]; 3.17E−02 microM): 85.0% | Relative cell count (%) Mean ([2]; 3.17E−03 microM): 82.3% | Relative cell count (%) Mean ([2]; 3.18E−04 microM): 100.1% | Relative cell count (%) Mean ([2]; 3.18E−05 microM): 99.4% | Cell Count Activity Area ([3]; A431, scale 0-10): 1.96 | Relative cell count (%) Mean ([3]; 1.00E+00 microM): 64.2% | Relative cell count (%) Mean ([3]; 1.00E−01 microM): 72.8% | Relative cell count (%) Mean ([3]; 1.00E−02 microM): 84.2% | Relative cell count (%) Mean ([3]; 1.00E−03 microM): 93.5% | Relative cell count (%) Mean ([3]; 1.01E−04 microM): 101.0% | Relative cell count (%) Mean ([3]; 3.16E−01 microM): 66.5% | Relative cell count (%) Mean ([3]; 3.17E−02 microM): 78.2% | Relative cell count (%) Mean ([3]; 3.17E−03 microM): 84.4% | Relative cell count (%) Mean ([3]; 3.18E−04 microM): 91.9% | Relative cell count (%) Mean ([3]; 3.18E−05 microM): 104.6% | EC50 ([3]; Homo sapiens, A-431, 72 h, A431, 3-day incubation, read-out: Cell Count EC50): 14.3 nM | GI50 ([3]; Homo sapiens, A-431, 72 h, A431, 3-day incubation, read-out: Cell Count GI50): > 1000 nM | IC50 ([3]; Homo sapiens, A-431, 72 h, A431, 3-day incubation, read-out: Cell Count IC50): > 1000 nM | EC50 ([3]; Homo sapiens, A-431, Table 4 summary, A431, Skin, Head/Neck, read-out: EC50): 14 nM | Cell Count Activity Area ([4]; CRO-AP2, scale 0-10): 5.61 | Relative cell count (%) Mean ([4]; 1.00E+00 microM): 23.3% | Relative cell count (%) Mean ([4]; 1.00E−01 microM): 24.5% | Relative cell count (%) Mean ([4]; 1.00E−02 microM): 27.9% | Relative cell count (%) Mean ([4]; 1.00E−03 microM): 38.7% | Relative cell count (%) Mean ([4]; 1.01E−04 microM): 89.0% | Relative cell count (%) Mean ([4]; 3.16E−01 microM): 23.3% | Relative cell count (%) Mean ([4]; 3.17E−02 microM): 23.6% | Relative cell count (%) Mean ([4]; 3.17E−03 microM): 29.7% | Relative cell count (%) Mean ([4]; 3.18E−04 microM): 59.0% | Relative cell count (%) Mean ([4]; 3.18E−05 microM): 93.4% | EC50 ([4]; Homo sapiens, 72 h, CRO-AP2, 3-day incubation, read-out: Cell Count EC50): 0.319 nM | GI50 ([4]; Homo sapiens, 72 h, CRO-AP2, 3-day incubation, read-out: Cell Count GI50): 0.434 nM | IC50 ([4]; Homo sapiens, 72 h, CRO-AP2, 3-day incubation, read-out: Cell Count IC50): 0.536 nM | Cell Count Activity Area ([5]; CaOV3, scale 0-10): 2.82 | Relative cell count (%) Mean ([5]; 1.00E+00 microM): 54.4% | Relative cell count (%) Mean ([5]; 1.00E−01 microM): 58.3% | Relative cell count (%) Mean ([5]; 1.00E−02 microM): 64.8% | Relative cell count (%) Mean ([5]; 1.00E−03 microM): 75.3% | Relative cell count (%) Mean ([5]; 1.01E−04 microM): 91.0% | Relative cell count (%) Mean ([5]; 3.16E−01 microM): 57.1% | Relative cell count (%) Mean ([5]; 3.17E−02 microM): 59.5% | Relative cell count (%) Mean ([5]; 3.17E−03 microM): 68.5% | Relative cell count (%) Mean ([5]; 3.18E−04 microM): 85.0% | Relative cell count (%) Mean ([5]; 3.18E−05 microM): 92.8% | EC50 ([5]; Homo sapiens, Caov-3, 72 h, CaOV3, 3-day incubation, read-out: Cell Count EC50): 0.976 nM | GI50 ([5]; Homo sapiens, Caov-3, 72 h, CaOV3, 3-day incubation, read-out: Cell Count GI50): 9.68 nM | IC50 ([5]; Homo sapiens, Caov-3, 72 h, CaOV3, 3-day incubation, read-out: Cell Count IC50): > 1000 nM | EC50 ([6]; Homo sapiens, 72 h, SK-MEL-28, 3-day incubation, read-out: Cell Count EC50): 0.194 nM | GI50 ([6]; Homo sapiens, 72 h, SK-MEL-28, 3-day incubation, read-out: Cell Count GI50): > 1000 nM | IC50 ([6]; Homo sapiens, 72 h, SK-MEL-28, 3-day incubation, read-out: Cell Count IC50): > 1000 nM | EC50 ([6]; Homo sapiens, Table 4 summary, SK-MEL-28, Melanoma, read-out: EC50): 0.19 nM | Cell Count Activity Area ([6]; SK-MEL-28, scale 0-10): 1.87 | Relative cell count (%) Mean ([6]; 1.00E−01 microM): 65.6% | Relative cell count (%) Mean ([6]; 1.00E−02 microM): 71.4% | Relative cell count (%) Mean ([6]; 1.00E−03 microM): 75.0% | Relative cell count (%) Mean ([6]; 1.01E−04 microM): 88.2% | Relative cell count (%) Mean ([6]; 3.17E−02 microM): 68.9% | Relative cell count (%) Mean ([6]; 3.17E−03 microM): 70.8% | Relative cell count (%) Mean ([6]; 3.18E−04 microM): 79.6% | Relative cell count (%) Mean ([6]; 3.18E−05 microM): 93.8% | Relative cell count (%) Mean [7]: 27.9%
